Results taken from ChEMBL document CHEMBL1129180, “Phosphoramidate derivatives of 2,3-didehydro-2,3-dideoxyadenosine [d4A] have markedly improved anti-HIV potency and selectivity” (Bioorg Med Chem Lett, 1996).
Converted amounts (≈) assume the structure as drawn.

Tests used:
[1] = Compound was evaluated minimum inhibitory concentration against moloney sarcoma virus (MSV) infected C3H cell cultures.; type: functional; details: Mus musculus
[2] = Compound was evaluated cytotoxicity against moloney sarcoma virus (MSV) infected C3H cell cultures.; type: functional; details: Mus musculus
CCRF-CEM [3] = assay: Compound was evaluated for cytotoxic activity against CEM cells.; type: functional; details: Homo sapiens
CCRF-CEM [4] = assay: Compound was evaluated for antiviral activity against HIV-1 (IIIB) infected CEM cells.; type: functional, cell-based; details: Homo sapiens
CCRF-CEM [5] = assay: Compound was evaluated for antiviral activity against HIV-2 (ROD) infected CEM cells.; type: functional, cell-based; details: Homo sapiens
[6] = Ratio of CC50/EC50 was calculated; type: functional

MIC [1] [µM] | EC50 (CCRF-CEM [4]) [µM] | EC50 (CCRF-CEM [5]) [µM] | SMILES | CC50 [2] [µM] | CC50 (CCRF-CEM [3]) [µM] | Selectivity index [6]
0.2 (≈ 0.11 µg/mL) | 0.008 | 0.008 | CC(NP(=O)(OCC1C=CC(n2cnc3c(N)ncnc32)O1)Oc1ccccc1)C(=O)OCc1ccccc1 (configuration not stated) | > 4 | 1.9 | 237
31 (≈ 7.23 µg/mL) | 20 | 20 | Nc1ncnc2c1ncn2[C@H]1C=C[C@@H](CO)O1 | > 100 | 91 | 4.5
0.02 (≈ 0.00534 µg/mL) |  |  | Cc1cn([C@H]2C[C@H](N=[N+]=[N-])[C@@H](CO)O2)c(=O)[nH]c1=O [ZIDOVUDINE] | > 20 | > 100 | > 20000
9.4 (≈ 4.46 µg/mL) | 0.006 | 0.018 | COC(=O)C(C)NP(=O)(OCC1C=CC(n2cnc3c(N)ncnc32)O1)Oc1ccccc1 (configuration not stated) | > 100 | 3.8 | 633
